# According to PMC7757987, “Antitumor Activity and Mechanism Study of Riluzole and Its Derivatives” (Iranian Journal of Pharmaceutical Research : IJPR, 2020):
# Assays:
# [1] = system: HeLa cells; assay: Cell morphological assessment by Hoechst 33258 staining; assay type: cell-based, human; conditions: HeLa, 12.5, 25 and 50 μmol/L, 24 h
# Method: The cell morphological assessment was carried out as described by Wang S ([21]). Morphological changes, such as chromosomal condensation and fragmentation in the nuclei of HeLa, were observed by Hoechst 33258 staining. In brief, HeLa cells were seeded at a concentration of 1×10^6 cells/well in 6-well plate and treated with compound 4a (12.5, 25 and 50 μmol/L) for 24 h. Subsequently, the cells were harvested and washed once with PBS and then fixed with 4% paraformaldehyde in PBS for 10 min. After staining with 10 mg/L Hoechst 33258 for 5 min, the cells were visualized under a fluorescent microscope (Nikon, Japan).
# [2] = system: Bax, Bcl-2, Caspase-3, Cleaved caspase-3, PI3K in HeLa cells; assay: Western blot assay; assay type: cell-based, human; conditions: 24 h; for Ratio of Bax/Bcl-2: HeLa, control 0.072
# Method: HeLa cells were seeded into 6-well plates at 10^6 cells per well with different concentrations of compound 4a (12.5, 25 and 50 μmol/L) and incubated at 37 ℃ for 24 h in the presence of 10% FBS. The controls were treated with vehicle (0.5% DMSO). The cells were lysed into ice-cold cell lysis buffer for 30 min and centrifuged at 13000 g for 15 min at 4 ℃. The protein concentrations of the supernatant were determined by a BCA protein Assay Kit. Equal amounts of protein lysates were separated on 10% SDS-PAGE (sodium dodecyl sulfate-polyacrylamide gel electrophoresis) and transferred onto PVDF membranes. The membranes were blocked with 5% non-fat milk in TBST (0.1% Tween 20 in TBS) buffer for 2 h, incubated with primary antibodies at 1:1000 dilutions at 4 ℃, and washed by TBST four times. Then, the membrane was immunobloted with Bax, Bcl-2, Caspase-3, Cleaved caspase-3, PI3K, and β-actin primary antibodies at 1:1000 dilutions at 4 °C for 12 h. After secondary incubation in horseradish peroxidase-conjugated secondary antibodies at 1:3000 at room temperature for 2 h, protein bands were visualized on X-ray film (Kodak, Japan) using ECL (Beyotime, China). The immunoblots were detected by densitometric analysis. Equal loading of protein in each lane was confirmed by probing with β-actin antibody ([24]).
# [3] = system: HepG2 (human liver cancer cell line); assay: CCK-8 anti-proliferative assay, HepG2; assay type: cell-based
# Method: (§1) HeLa (human cervical cancer cell line), HepG2 (human liver cancer cell line), SP2/0 (mouse myeloma cell line), and LO2 (human normal liver cell line) were cultured in DMEM medium. Each medium was supplemented with 10% fetal bovine serum, 1% L-glutamine and 1% penicillin/streptomycin solution. The cell lines were kept in the incubator at 37 ℃ in a humidified atmosphere (90% RH) containing 5% CO2. […] The cell lines SP2/0 and MCF-7 were obtained from Laboratory Center of Shaanxi Province People’s Hospital.
# (§2) 2×10^3 cells per well were planted into 96-well plates in 100 μL growth medium and incubated for 24 h. […] The mixture was incubated at 37 ℃ under a humidified 5% CO2 atmosphere. After incubation, 10 μL CCK-8 solution was added to each well and the cells were further incubated for 2 h at 37 ℃ according to the CCK-8 Technical Manual. Then, the OD value for each well was read at wavelength 450 nm to determine the cell viability on a microplate reader (Synergy HT, USA). […] The independent experiment was repeated at least three times. The percentage of growth inhibition was calculated as follows according to reference ([18]),
# (§3) % of growth inhibition = [1 - absorbance of treated cells/absorbance of untreated cells] × 100%
# [4] = system: SP2/0 (mouse myeloma cell line); assay: CCK-8 anti-proliferative assay, SP2/0; assay type: cell-based
# Method: as §1, §2, §3
# [5] = system: HeLa cells; assay: Flow cytometric analysis of the cell cycle (PI); assay type: cell-based, human; conditions: 24 h, control 3.66%
# Method: Cell cycle assay was performed using the cell cycle and apoptosis analysis kit (Beyotime, China) and following the manufacturer’s instructions. The HeLa cells were treated with the indicated concentrations of compound 4a (12.5, 25 and 50 μmol/L) for 24 h. Next, the cells were harvested and washed twice with PBS. The cells were fixed with cold 70% ethanol for 12 h at 4 ℃ and were harvested and centrifuged at 1000 g for 5 min. Then, the cell density was adjusted to 1×10^6 cells/mL with PBS. Finally, the cells were stained with a propidium iodide (PI) solution (50 μg/mL). The number of cells in each phase of the cell cycle was analyzed by flow cytometry (FACSCalibur; BD Bioscience, USA).
# [6] = system: MCF-7 (human breast cancer cell line); assay: CCK-8 anti-proliferative assay, MCF-7; assay type: cell-based
# Method: as §1, §2, §3
# [7] = system: HeLa cells; assay: Scratch wound healing (anti-migration) assay; assay type: cell-based, human; conditions: 25 μmol/L, 24 h
# Method: Once the monolayer was formed, a small scratch was made in the plate using a 10 μL pipette tip (0 h, day 1). The monolayer was once washed with PBS to remove debris or the detached cells from the monolayer. […] Images were taken using an inverted microscope ([19]). The experiments were performed in triplicate.
# The relative scratch healing rate was calculated as follows according to reference ([20]),
# Scratch healing rate = (scratch width at 0 h – the remaining scratch width at 24 h)/scratch width in 0 h×100%
# [8] = system: HeLa (human cervical cancer cell line); assay: CCK-8 anti-proliferative assay, HeLa; assay type: cell-based
# Method: as §1, §2, §3
# [9] = system: HeLa cells; assay: Flow cytometric analysis of cell apoptosis (annexin V-FITC/PI); assay type: cell-based, human; conditions: 24 h, control 0.02%
# Method: The cell apoptosis analysis was evaluated by using the annexin V-FITC apoptosis detection kit (Beyotime, China). Briefly, the HeLa cells (1×10^6 cells/well) were seeded into 6-well culture plates and incubated for 24 h. Then the cells were incubated for 24 h with the compound 4a (12.5, 25 and 50 μmol/L). The cells were then rinsed, resuspended in 60 μL binding buffer and incubated for 10 min with 5 μL annexin V-FITC at room temperature, followed by an addition of 120 μL binding buffer and 10 μL PI. The solutions were gently mixed and analyzed with the FACScan flow cytometry. The cells that were not treated were used as the control ([23]).
# [10] = CCK-8 cytotoxicity assay, normal LO2 cells; assay type: cell-based, human; conditions: human, LO2 normal liver cells; CCK-8, 48 h, normal liver cells; read-out: Cytotoxicity (IC50) L02
# Method: as §1, §2, §3
# [11] = system: LO2 (human normal liver cell line); assay: CCK-8 cytotoxicity assay, normal LO2 cells; assay type: cell-based; conditions: CCK-8
# Method: as §1, §2, §3
smiles,measurement,setting,value
"CCNc1nc2ccc(OC(F)(F)F)cc2s1 [Compound 4a, 2-(N-ethylamine)-6-trifluoromethoxy-benzothiazole]",Nuclear morphology (Hoechst 33258),[1],nuclear condensation and fragmentation
same,Ratio of Bax/Bcl-2,[2]; 12.5μM,0.087
same,Ratio of Bax/Bcl-2,[2]; 25μM,1.092
same,Ratio of Bax/Bcl-2,[2]; 50μM,1.929
same,Expression level of Caspase-3,"[2]; HeLa, 12.5, 25 and 50 μmol/L",not remarkably concentration-dependent change
same,Expression level of PI3K,"[2]; HeLa, 12.5, 25 and 50 μmol/L",not remarkably concentration-dependent change
same,Expression of Bcl-2,"[2]; HeLa, 12.5, 25 and 50 μmol/L",reduced
same,Level of Bax,"[2]; HeLa, 12.5, 25 and 50 μmol/L",increased
same,Level of Cleaved caspase-3,"[2]; HeLa, 12.5, 25 and 50 μmol/L",increased
same,IC50,"[3]; Homo sapiens, HepG2, CCK-8, 48 h, read-out: Cytotoxicity (IC50) HepG2",33.7 ± 1.04 µM
same,Selectivity index (SI) HepG2,[3]; IC50 LO2 / IC50 HepG2,1.93
same,melting point,,133 to 134 °C
same,Selectivity index (SI) SP2/0,[4]; IC50 LO2 / IC50 SP2/0,1.27
same,IC50,"[4]; Mus musculus, CCK-8, 48 h, read-out: Cytotoxicity (IC50) SP2/0",51.1 ± 2.73 µM
same,Cells in the G2/M phase,[5]; 12.5 μmol/L,3.85%
same,Cells in the G2/M phase,[5]; 25 μmol/L,6.63%
same,Cells in the G2/M phase,[5]; 50 μmol/L,8.00%
same,IC50,"[6]; Homo sapiens, MCF7, CCK-8, 48 h, read-out: Cytotoxicity (IC50) MCF-7",7.72 ± 0.53 µM
same,Selectivity index (SI) MCF-7,[6]; IC50 LO2 / IC50 MCF-7,8.41
same,Relative scratch healing rate,[7],less than 20%
same,Effect on HeLa cell migration,[7]; versus control group,significantly slower
same,IC50,"[8]; Homo sapiens, HeLa, CCK-8, 48 h, read-out: Cytotoxicity (IC50) HeLa",7.76 ± 0.45 µM
same,Selectivity index (SI) HeLa,[8]; IC50 LO2 / IC50 HeLa,8.37
same,Early apoptotic rate (LR quadrant),[9]; 12.5 μmol/L,4.76%
same,Early apoptotic rate (LR quadrant),[9]; 25 μmol/L,9.63%
same,Early apoptotic rate (LR quadrant),[9]; 50 μmol/L,19.81%
same,IC50 at 48 h,[10],65 ± 4.38 µM
same,Concentration up to which nontoxic to LO2 cells,[11],up to 65 μmol/L
